Test results published in patent publication US20190365680A1, “USE OF EP4 RECEPTOR ANTAGONISTS FOR THE TREATMENT OF NASH-ASSOCIATED LIVER CANCER” (AskAt Inc., priority 2016, published 2019).

Assays:
[1] = system: immune cells obtained from mouse livers; details: liver; 30 mg/kg QD from 19 to 30 weeks of age; vs vehicle
Protocol: FIG. 5A depicts flow cytometry analysis of immune cells between vehicle-treated mice or Compound A-treated mice. The percentages of total CD11c^hi MHC class II (MHC II)^hi, CD11b^+ CD11c^hi MHC II^hi, or CD103^+ CD11c^hi MHC II^hi cells were analyzed by flow cytometry. Data are represented as means ±SEM.
FIG. 6A depicts the percentages of CD3^+ CD4^+ Foxp3^+, CD3^+ CD4^+ Foxp3^−, CD3^+ CD8^+ cells analyzed by flow cytometry. The ratio of CD8^+ T cells to CD4^+ Foxp3^+ Tregs was calculated. Data are represented as means ±SEM. NS=not significant, *p<0.05, **p<0.01.
In FIG. 7A, the percentages of CD69^+ CD8^+ cells were analyzed by flow cytometry (*p<0.05, **p<0.01).
In FIG. 8A, the percentages of PD-1^+ CD8^+ cells were analyzed by flow cytometry (*p<0.05, **p<0.01).
Immune cells were obtained from mouse livers and were subjected to measuring cytokine production and flow cytometric analysis.
Data were analyzed by unpaired t-test with Welch correction (two-side) or Man-Whitney test (two-side). P values less than 0.05 were considered significant. “NS” indicates not significant.
The impact of EP4 blockage on the prevalence and activation status of immune cells was assessed.

[2] = Body weight in the NASH-associated mouse liver cancer model; type: in vivo; details: 30 mg/kg QD from 19 to 30 weeks of age; weight at the age of 30 weeks
Protocol: FIG. 4 depicts the average body weight of the vehicle-treated group and Compound A-treated group at the age of 30 weeks. Data are represented as means ±SD.
(§1) This mouse model was developed by treating with DMBA, 7,12-dimethylbenz(a)anthracene, and by feeding a high fat diet (HFD) (NPL 15). […] In this experiment, Compound A 30 mg/kg QD was administered to the mice every day from 19 weeks of age to 30 weeks of age (FIG. 1). As a control, a separate group of mice were treated only with a vehicle and no active ingredient.

[3] = system: obesity-induced NASH-associated liver cancer; test: Obesity-induced (DMBA + high fat diet) NASH-associated mouse liver cancer model: liver tumor development; type: in vivo
Protocol: FIG. 1 depicts a mouse model timeline developed by treating with 7,12-dimethylbenz(a)anthracene (“DMBA”), and by feeding with a high fat diet (HFD). Compound A was administered to the mice every day from 19 weeks of age to 30 weeks of age and then euthanized (“Eut”).
FIG. 2 is macroscopic photographs of the liver isolated from the vehicle-treated mice (left side) and Compound A-treated mice (right side). […] Compound A or a vehicle (n=5, each) were treated to the mice every day from 19 weeks of age to 30 weeks of age. Arrowheads identify hepatocellular carcinomas (HCCs).
FIG. 3 depicts the average liver tumor numbers and the relative size distribution (classified as >6 mm, 2-6 mm, ≤2 mm). “NS” means not significant.
C57/BL6 mice were purchased from CLEA Japan Inc. The Tlr2^−/− mice (C57/BL6) were purchased from Oriental Yeast Co. Ltd.
Hematoxylin and eosin staining and immunofluorescence analysis were performed as previously described (Yoshimoto et al., Nature, 2013, 499:97-101).
P values less than 0.05 were considered significant. “NS” indicates not significant.
as §1

C[C@H](NC(=O)c1cc(Cl)cnc1Oc1cccc(F)c1)c1ccc(C(=O)O)cc1 [Compound A, 4-[(1S)-1-({[5-chloro-2-(3-fluorophenoxy)pyridin-3-yl]carbonyl}amino)ethyl]-benzoic acid]
frequency of CD4+Foxp3+ regulatory T cells (Tregs) [1]: significantly reduced
frequency of CD8+ T cells [1]: not changed
frequency of CD11b+ DCs [1]: not changed
frequency of CD11chi MHC class IIhi dendritic cells (DCs) [1]: not changed
number of CD8+ T cells expressing programmed cell death-1 (PD-1) [1]: significantly reduced
number of CD8+ T cells expressing the activation marker CD69 [1]: significantly increased
population of CD103+ DCs [1]: increased
ratio of CD8+ T cells to Tregs [1]: increased
body weight [2]: did not influence
Hepatocellular carcinoma (HCC) development compared to vehicle-treated mice ([3]; C57/BL6 mice, DMBA + HFD, 30 mg/kg QD every day from 19 to 30 weeks of age): strongly reduced
Tumor colony sized more than 6 mm ([3]; DMBA + HFD mice, treated every day from 19 to 30 weeks of age): completely disappeared
tumor number in the liver compared to vehicle-treated mice ([3]; DMBA + HFD mice, treated every day from 19 to 30 weeks of age, n=5): significantly inhibited
